Where two headings read alike, the source gives them in different places.
Tested on: IL-1β release upon NLRP3 activation in peripheral blood mononuclear cells (PBMC)
Assay: PBMC IC50 determination assay (IL-1β release, Protocol A ELISA / Protocol B HTRF)
Assay type: cell-based
Details: Homo sapiens
Experimental: The compounds of the present disclosure were tested for their inhibitory activity against IL-1β release upon NLRP3 activation in peripheral blood mononuclear cells (PBMC).
Isolated cells were seeded into the wells of a 96-well plate and incubated for 3 h with lipopolysaccharide (LPS). Following medium exchange, the compounds of the present disclosure were added (a single compound per well) and the cells were incubated for 30 min. Next, the cells were stimulated either with ATP (5 mM) or nigericin (10 μM) for 1 h and the cell culture media from the wells were collected for further analysis.
The release of IL1-β into the media was determined by a quantitative detection of IL-1β in the media using an IL-1β enzyme-linked immunosorbent assay (ELISA) Ready-SET-Go!, eBioscience cat. […] Subsequently, plates were blocked with blocking buffer for 1 h at room temperature (rt) and after washing with a buffer (PBS with 0.05% Tween-20) incubated with protein standard and culture media. […] Plates were washed and incubated with HRP-streptavidin for 30 min at rt and washed again. The signal was developed after addition of 3,3′,5,5′-tetramethylbenzidine-peroxidase (TMB) until colour appeared and the reaction was stopped by 2 M H2SO4. A microplate spectrophotometer (BioTek) was used to detect signals with 450 nm. The detection range of IL-1β ELISA was 2-150 ng/ml.
Isolated cells were seeded into the wells (280,000 cells/well) of a 96-well plate and incubated for 3 h with lipopolysaccharide (LPS, 1 μg/ml diluted 1000× from a 1 mg/ml stock solution). The compounds of the present disclosure were added (a single compound per well) and the cells were incubated for 30 min. Next, the cells were stimulated with ATP (5 mM final concentration diluted 20× from a 100 mM stock solution) for 1 h and the cell culture media from the wells were collected for further analysis.
The release of IL-1β into the media was determined by quantitative detection of IL-1β in the media using HTRF®, CisBio cat. No. 62HIL1BPEH. Briefly, cell culture supernatant were dispensed directly into the assay plate containing antibodies labelled with the HTRF® donor and acceptor. A microplate spectrophotometer (BMG) was used to detect signals at 655 nm and 620 nm. The detection range of IL-1β HTRF® was 39-6500 pg/ml.

[1] = PBMC primed with LPS 3 h, compound 30 min, stimulated with ATP (5 mM) or nigericin (10 μM) 1 h, IL-1β in media, read-out: Average PBMC IC50
[2] = PBMC, read-out: Average PBMC IC50 (μM)

| Compound | IC50 [1] [µM] | IC50 [2] [µM] |
| --- | --- | --- |
| CN1CC2(CC(N(c3cnn(C)c3)S(=O)(=O)NC(=O)Nc3c4c(cc5c3CCC5)CCC4)C2)C1 [Compound 58] | 10 to 50 | – |
| CN1CC(N(c2cnn(C)c2)S(=O)(=O)NC(=O)Nc2c3c(cc4c2CCC4)CCC3)CC1=O (centres unmarked) [Compound 83] | 1 to 3 | – |
| C[C@H]1CC(N(c2cnn(C)c2)S(=O)(=O)NC(=O)Nc2c3c(cc4c2CCC4)CCC3)CCO1 (some centres unmarked) [Compound 84] | < 1 | – |
| Cn1cc(N(C2CCN(CC(F)(F)F)CC2)S(=O)(=O)NC(=O)Nc2c3c(cc4c2CCC4)CCC3)cn1 [Compound 65] | 1 to 3 | – |
| Cc1nn(C)c(C)c1N(C1CCN(C)CC1)S(=O)(=O)NC(=O)Nc1c2c(cc3c1CCC3)CCC2 [Compound 15] | 1 to 3 | – |
| CC(C)c1cc(Cl)cc(NC(=O)NS(=O)(=O)N(c2cnn(C)c2)C2CCOCC2)c1 [Compound 89] | 1 to 3 | – |
| Cn1cnc(N(C2CCOCC2)S(=O)(=O)NC(=O)Nc2c3c(cc4c2CCC4)CCC3)n1 [Compound 19] | 3 to 10 | – |
| CC(C)c1cc(NC(=O)NS(=O)(=O)N(c2cnn(C)c2)C2CCN(C)CC2)cc(C(C)C)c1 [Compound 49] | < 1 | – |
| CCc1cc(C)cc(NC(=O)NS(=O)(=O)N(c2cnn(C)c2)C2CCOCC2)c1 [Compound 76] | 1 to 3 | – |
| Cc1csc(N(C2CCOCC2)S(=O)(=O)NC(=O)Nc2c3c(cc4c2CCC4)CCC3)n1 [Compound 108] | < 1 | – |
| C[C@@H]1CC(N(c2cnn(C)c2)S(=O)(=O)NC(=O)Nc2c3c(cc4c2CCC4)CCC3)CCO1 (some centres unmarked) [Compound 85] | < 1 | – |
| CCc1cc(Cl)cc(NC(=O)NS(=O)(=O)N(c2cnn(C)c2)C2CCOCC2)c1 [Compound 77] | 1 to 3 | – |
| O=C(Nc1c2c(cc3c1CCC3)CCC2)NS(=O)(=O)N(c1cnn(C(F)F)c1)C1CCOCC1 [Compound 25] | < 1 | – |
| CN1CCC[C@@H]1CN(c1cnn(C)c1)S(=O)(=O)NC(=O)Nc1cc(Cl)cc(Cl)c1 [Compound 112] | < 1 | – |
| CN1CCC(N(c2cnn(C)c2)S(=O)(=O)NC(=O)Nc2c3c(cc4c2CCC4)CCC3)CC1 [Compound 2] | < 1 | – |
| Cn1cc(N(CC2COC2)S(=O)(=O)NC(=O)Nc2c3c(cc4c2CCC4)CCC3)cn1 [Compound 16] | < 1 | – |

| Compound | IC50 [1] [µM] | IC50 [2] [µM] |
| --- | --- | --- |
| Cn1cc(N(C2CN3CCC2CC3)S(=O)(=O)NC(=O)Nc2c3c(cc4c2CCC4)CCC3)cn1 (centres unmarked) [Compound 54] | – | < 1 |
| CC(C)N1CCC(N(c2cnn(C)c2)S(=O)(=O)NC(=O)Nc2c3c(cc4c2CCC4)CCC3)C1 (centres unmarked) [Compound 51] | < 1 | – |
| CN1CCC1CN(c1cnn(C)c1)S(=O)(=O)NC(=O)Nc1c2c(cc3c1CCC3)CCC2 (centres unmarked) [Compound 111] | < 1 | – |
| CN1CCC(N(c2cn[nH]c2)S(=O)(=O)NC(=O)Nc2c3c(cc4c2CCC4)CCC3)CC1 [Compound 40] | – | 1 to 3 |
| O=C(Nc1c2c(cc3c1CCC3)CCC2)NS(=O)(=O)N(c1cnoc1)C1CCOCC1 [Compound 13] | < 1 | – |
| CN1CCC[C@@H]1CN(c1cnn(C)c1)S(=O)(=O)NC(=O)Nc1c2c(cc3c1CCC3)CCC2 [Compound 110] | < 1 | – |
| Cn1cc(N(C2CCN(CC(F)F)CC2)S(=O)(=O)NC(=O)Nc2c3c(cc4c2CCC4)CCC3)cn1 [Compound 45] | – | 1 to 3 |
| CN1CCC(CN(c2cnn(C)c2)S(=O)(=O)NC(=O)Nc2c3c(cc4c2CCC4)CCC3)C1 (centres unmarked) [Compound 57] | < 1 | – |
| CCN1CCC(N(c2cnn(C)c2)S(=O)(=O)NC(=O)Nc2c3c(cc4c2CCC4)CCC3)C1 (centres unmarked) [Compound 50] | < 1 | – |
| CC(C)N1CCC(N(c2cnn(C)c2)S(=O)(=O)NC(=O)Nc2c3c(cc4c2CCC4)CCC3)CC1 [Compound 33] | 1 to 3 | – |
| CCC(C)c1cc(Cl)cc(NC(=O)NS(=O)(=O)N(c2cnn(C)c2)C2CCOCC2)c1 (centres unmarked) [Compound 105] | < 1 | – |
| CN1CCCC1CN(c1cnn(C)c1)S(=O)(=O)NC(=O)Nc1c2c(cc3c1CCC3)CCC2 (centres unmarked) [Compound 68] | < 1 | – |
| CC(C)c1cc(Cl)cc(NC(=O)NS(=O)(=O)N(c2cnn(C)c2)C2CCCN(C)C2)c1 (centres unmarked) [Compound 101] | < 1 | – |
| CN1CCC(N(c2cnn(C)c2)S(=O)(=O)NC(=O)Nc2c3c(cc4c2CCC4)CCC3)C1 (centres unmarked) [Compound 24] | < 1 | – |
| CCN1CCC(N(c2cnn(C)c2)S(=O)(=O)NC(=O)Nc2c3c(cc4c2CCC4)CCC3)CC1 [Compound 32] | < 1 | – |
| Cn1cc(N(CCN2CCC2)S(=O)(=O)NC(=O)Nc2c3c(cc4c2CCC4)CCC3)cn1 [Compound 63] | < 1 | – |

From patent US12459925B2, “Sulphonyl urea derivatives as NLRP3 inflammasome modulators” (priority 2017, dated 2025)
